One experiment addresses human GlyT1c transporter (Homo sapiens (Human), UniProt P48067). The experiment can be described thus: Radioligand binding assay using recombinant CHO cell membranes expressing human GlyT1. The settings on record: read-out: radioligand binding Kiapp. From the text:
2. Radioligand binding assays using recombinant CHO cell membranes expressing human GlyT1: […]

The target in the next experiment is human GlyT1c (Homo sapiens (Human), UniProt P48067). The experiment can be described thus: [3H]-Glycine uptake into recombinant CHO cells expressing human GlyT1. Type of experiment: cell-based. In short, it runs like this:
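Recombinant CHO cells stably expressing hGlyT1c, grown 24 h to sub-confluency on scintillating plates, given inhibitor or vehicle plus 200 nM (final) [3H]-glycine in HBSS. Uptake counted continuously by solid-phase scintillation for up to 3 h; nonspecific uptake defined with 10 μM Org24598.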

[1] abbreviates: human GlyT1c-expressing CHO cell membranes.
Where [2] appears, read: hGlyT1c_5_CHO cells, 200 nM [3H]-glycine.

Structures are written as SMILES. Structures can show the parent of a compound that is named as a salt. Where two headings read alike, the source gives them in different places.

By IC50 is commonly meant the midpoint of a concentration-inhibition curve.

Sequence of human GlyT1c transporter (P48067 whole entry): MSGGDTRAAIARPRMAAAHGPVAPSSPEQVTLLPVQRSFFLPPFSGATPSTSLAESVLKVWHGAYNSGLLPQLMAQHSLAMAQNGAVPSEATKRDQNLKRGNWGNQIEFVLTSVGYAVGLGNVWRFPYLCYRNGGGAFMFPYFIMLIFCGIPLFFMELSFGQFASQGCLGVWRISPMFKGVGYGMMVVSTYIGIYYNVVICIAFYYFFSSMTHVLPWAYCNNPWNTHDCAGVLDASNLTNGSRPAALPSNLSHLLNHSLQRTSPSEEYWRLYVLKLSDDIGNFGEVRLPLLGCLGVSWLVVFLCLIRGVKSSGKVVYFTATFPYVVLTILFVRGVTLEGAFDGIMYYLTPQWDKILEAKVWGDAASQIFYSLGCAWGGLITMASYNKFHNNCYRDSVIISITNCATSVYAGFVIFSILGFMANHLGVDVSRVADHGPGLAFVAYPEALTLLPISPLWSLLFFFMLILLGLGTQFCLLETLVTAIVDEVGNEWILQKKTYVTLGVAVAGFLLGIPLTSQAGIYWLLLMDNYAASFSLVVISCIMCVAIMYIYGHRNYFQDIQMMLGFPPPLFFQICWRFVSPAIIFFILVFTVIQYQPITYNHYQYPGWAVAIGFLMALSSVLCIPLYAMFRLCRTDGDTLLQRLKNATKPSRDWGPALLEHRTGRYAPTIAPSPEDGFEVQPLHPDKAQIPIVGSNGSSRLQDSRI
Sequence of human GlyT1c (P48067 whole entry): as above

Take `CCS(=O)(=O)NCCOc1ccc2c(c1)C(Cc1cccc(Cl)c1)C(N)CC2` (stereo not shown) [Example 70, Ethanesulfonic acid {2-[7-amino-8-(3-chloro-benzyl)-5,6,7,8-tetrahydro-naphthalen-2-yloxy]-ethyl}-amide hydrochloride]: the Ki on human GlyT1c transporter is at most 0.1 µM. The IC50 at human GlyT1c was at most 1 µM.

As for `Cc1ncc(S(=O)(=O)NCCOc2ccc3c(c2)C(Cc2cccc(Cl)c2)C(N)CC3)[nH]1` (stereo not shown) [Example 58, 2-Methyl-3H-imidazole-4-sulfonic acid {2-[7-amino-8-(3-chloro-benzyl)-5,6,7,8-tetrahydronaphthalen-2-yloxy]-ethyl}-amide], the Ki at human GlyT1c transporter (setting [1]) was at most 1 µM. On human GlyT1c (setting [2]), the IC50 was at most 10 µM.

For the molecule `CCn1cc(S(=O)(=O)NCCOc2ccc3c(c2)C(Cc2cccc(Cl)c2)C(N)CC3)cn1` (stereo not shown) [Example 66, 1-Ethyl-1H-pyrazole-4-sulfonic acid {2-[7-amino-8-(3-chloro-benzyl)-5,6,7,8-tetrahydronaphthalen-2-yloxy]-ethyl}-amide hydrochloride], the Ki at human GlyT1c transporter was at most 0.1 µM. Also, the 50% inhibitory concentration (IC50) on human GlyT1c is at most 1 µM.

With `CCNC1CCc2ccc(OCCNS(=O)(=O)c3cn(C)cn3)cc2C1Cc1ccc(Cl)c(Cl)c1` (stereo not shown) [Example 23, 1-Methyl-1H-imidazole-4-sulfonic acid {2-[8-(3,4-dichloro-benzyl)-7-ethylamino-5,6,7,8-tetrahydro-naphthalen-2-yloxy]-ethyl}-amide], the Ki on human GlyT1c transporter (setting [1]) was at most 10 µM. For the same molecule, the IC50 at human GlyT1c (setting [2]) is at most 100 µM.

Turning to `CCOC(=O)NC1CCc2ccc(OCCNS(=O)(=O)c3cnn(C(F)F)c3)cc2C1Cc1cccc(Cl)c1` (stereo not shown) [Example 81, {1-(3-Chloro-benzyl)-7-[2-(1-difluoromethyl-1H-pyrazole-4-sulfonylamino)-ethoxy]-1,2,3,4-tetrahydro-naphthalen-2-yl}-carbamic acid ethyl ester], the Ki on human GlyT1c transporter (setting [1]) was at most 10 µM. Besides, the IC50 on human GlyT1c (setting [2]) is at least 1000 µM.

For the molecule `CCCS(=O)(=O)NCCOc1ccc2c(c1)C(Cc1ccc(Cl)c(Cl)c1)C(NC(=O)OCC)CC2` (stereo not shown) [Example 7], on human GlyT1c transporter (setting [1]), the Ki is at most 10 µM. For the same molecule, the IC50 on human GlyT1c (setting [2]) was at most 10 µM.

As to `CCOC(=O)NC1CCc2ccc(OCCNS(=O)(=O)c3cnc(C)[nH]3)cc2C1Cc1cccc(Cl)c1` (stereo not shown) [Example 52, {1-(3-Chloro-benzyl)-7-[2-(2-methyl-3H-imidazole-4-sulfonylamino)-ethoxy]-1,2,3,4-tetrahydro-naphthalen-2-yl}-carbamic acid ethyl ester], on human GlyT1c transporter (setting [1]), the Ki was at most 10 µM. Also, on human GlyT1c (setting [2]), the IC50 is at most 10 µM.

Take `CCOC(=O)NC1CCc2ccc(OCCNS(=O)(=O)c3ccc(C)s3)cc2C1Cc1cccc(Cl)c1` (stereo not shown) [Example 53, {1-(3-Chloro-benzyl)-7-[2-(5-methyl-thiophene-2-sulfonylamino)-ethoxy]-1,2,3,4-tetrahydro-naphthalen-2-yl}-carbamic acid ethyl ester]: the Ki on human GlyT1c transporter (setting [1]) was at most 10 µM. The IC50 on human GlyT1c (setting [2]) is at most 1000 µM.

Consider `CS(=O)(=O)NCCOc1ccc2c(c1)C(Cc1ccc(Cl)c(Cl)c1)C(N)CC2` (stereo not shown) [Example 15, N-{2-[7-Amino-8-(3,4-dichloro-benzyl)-5,6,7,8-tetrahydro-naphthalen-2-yloxy]-ethyl}-methanesulfonamide hydrochloride], for which the Ki at human GlyT1c transporter is at most 1 µM. Besides, the IC50 at human GlyT1c is at most 1 µM.

In the case of `Cn1cnc(S(=O)(=O)NCCOc2ccc3c(c2)C(Cc2ccc(Cl)c(Cl)c2)C(NC=O)CC3)c1` (stereo not shown) [Example 20, 1-Methyl-1H-imidazole-4-sulfonic acid {2-[8-(3,4-dichloro-benzyl)-7-formylamino-5,6,7,8-tetrahydro-naphthalen-2-yloxy]-ethyl}-amide], the Ki at human GlyT1c transporter (setting [1]) was at most 0.01 µM. For the same molecule, the IC50 on human GlyT1c (setting [2]) was at most 0.1 µM.

Turning to `CCOC(=O)NC1CCc2ccc(OCCNS(=O)(=O)c3cccs3)cc2C1Cc1ccc(Cl)c(Cl)c1` (stereo not shown) [Example 14, {1-(3,4-Dichloro-benzyl)-7-[2-(thiophene-2-sulfonylamino)-ethoxy]-1,2,3,4-tetrahydronaphthalen-2-yl}-carbamic acid ethyl ester], the Ki on human GlyT1c transporter (setting [1]) was at most 100 µM. The IC50 on human GlyT1c (setting [2]) was at most 1000 µM.

As to `NC1CCc2ccc(OCCNS(=O)(=O)c3cccs3)cc2C1Cc1ccc(Cl)cc1Cl` (stereo not shown) [Example 72, Thiophene-2-sulfonic acid {2-[7-amino-8-(2,4-dichloro-benzyl)-5,6,7,8-tetrahydronaphthalen-2-yloxy]-ethyl}-amide hydrochloride], the Ki on human GlyT1c transporter (setting [1]) was at most 10 µM. The IC50 at human GlyT1c (setting [2]) is at most 10 µM.

Regarding `CCOC(=O)NC1CCc2ccc(OCCNS(=O)(=O)c3ccc(C)s3)cc2C1Cc1ccc(Cl)cc1Cl` (stereo not shown) [Example 64, {1-(2,4-Dichloro-benzyl)-7-[2-(5-methyl-thiophene-2-sulfonylamino)-ethoxy]-1,2,3,4-tetrahydro-naphthalen-2-yl}-carbamic acid ethyl ester], the Ki on human GlyT1c transporter (setting [1]) is at most 10 µM. In addition, the IC50 at human GlyT1c (setting [2]) was at most 1000 µM.

Take `CCCS(=O)(=O)NCc1ccc2c(c1)C(Cc1ccc(Cl)c(Cl)c1)C(NC(=O)OC(C)(C)C)CC2` (stereo not shown) [Example 39, tert-Butyl[1-(3,4-dichlorobenzyl)-7-{[(propylsulfonyl)amino]methyl}-1,2,3,4-tetrahydronaphthalen-2-yl]carbamate]: the Ki on human GlyT1c transporter (setting [1]) is at most 10 µM. For the same molecule, the IC50 on human GlyT1c (setting [2]) was at most 1000 µM.

With `CCOC(=O)NC1CCc2ccc(OCCNS(=O)(=O)c3ccc(Cl)s3)cc2C1Cc1cccc(Cl)c1` (stereo not shown) [Example 51, {1-(3-Chloro-benzyl)-7-[2-(5-chloro-thiophene-2-sulfonylamino)-ethoxy]-1,2,3,4-tetrahydronaphthalen-2-yl}-carbamic acid ethyl ester], the Ki on human GlyT1c transporter (setting [1]) is at most 100 µM. For the same molecule, at human GlyT1c (setting [2]), the IC50 was at most 1000 µM.

Turning to `Cc1cc(S(=O)(=O)NCCOc2ccc3c(c2)C(Cc2cccc(Cl)c2)C(N)CC3)c(C)s1` (stereo not shown) [Example 69, 2,5-Dimethyl-thiophene-3-sulfonic acid {2-[7-amino-8-(3-chloro-benzyl)-5,6,7,8-tetrahydronaphthalen-2-yloxy]-ethyl}-amide hydrochloride], the Ki on human GlyT1c transporter (setting [1]) is at most 1 µM. Moreover, the IC50 at human GlyT1c (setting [2]) is at most 10 µM.

Turning to `CCCS(=O)(=O)N(C)CCOc1ccc2c(c1)C(Cc1ccc(Cl)cc1)C(N)CC2` (stereo not shown) [Example 77, Propane-1-sulfonic acid {2-[7-amino-8-(4-chloro-benzyl)-5,6,7,8-tetrahydro-naphthalen-2-yloxy]-ethyl}-methyl-amide hydrochloride], the Ki on human GlyT1c transporter (setting [1]) was at most 0.1 µM. In addition, the IC50 at human GlyT1c (setting [2]) was at most 1 µM.

On to `NC1CCc2ccc(OC(F)F)cc2C1Cc1ccc(Cl)cc1` (stereo not shown) [Example 36, 1-(4-chlorobenzyl)-7-(difluoromethoxy)-1,2,3,4-tetrahydronaphthalen-2-amine hydrochloride], for which the Ki at human GlyT1c transporter (setting [1]) was at most 100 µM. Moreover, the IC50 at human GlyT1c (setting [2]) is at most 10 µM.

With `Cc1ccc(S(=O)(=O)NCCOc2ccc3c(c2)C(Cc2cccc(Cl)c2)C(N)CC3)s1` (stereo not shown) [Example 68, 5-Methyl-thiophene-2-sulfonic acid {2-[7-amino-8-(3-chloro-benzyl)-5,6,7,8-tetrahydronaphthalen-2-yloxy]-ethyl}-amide hydrochloride], at human GlyT1c transporter (setting [1]), the Ki is at most 1 µM. In addition, the IC50 on human GlyT1c (setting [2]) is at most 10 µM.

As to `CCOC(=O)NC1CCc2ccc(OCCNS(=O)(=O)CCCF)cc2C1Cc1ccc(Cl)c(Cl)c1` (stereo not shown) [Example 22, {1-(3,4-Dichloro-benzyl)-7-[2-(3-fluoro-propane-1-sulfonylamino)-ethoxy]-1,2,3,4-tetrahydro-naphthalen-2-yl}-carbamic acid ethyl ester], the Ki on human GlyT1c transporter (setting [1]) is at most 10 µM. Also, the IC50 at human GlyT1c (setting [2]) is at most 1000 µM.

As for `Cn1cnc(S(=O)(=O)NCCOc2ccc3c(c2)C(Cc2cccc(Cl)c2)C(N)CC3)c1` (stereo not shown) [Example 48, 1-Methyl-1H-imidazole-4-sulfonic acid {2-[7-amino-8-(3-chloro-benzyl)-5,6,7,8-tetrahydronaphthalen-2-yloxy]-ethyl}-amide hydrochloride], the Ki on human GlyT1c transporter (setting [1]) is at most 0.01 µM. In addition, the 50% inhibitory concentration (IC50) at human GlyT1c (setting [2]) was at most 0.01 µM.

On to `O=C(NC1CCc2ccc(O)cc2C1Cc1ccc(Cl)cc1)OCc1ccccc1` (stereo not shown) [Example 37, Benzyl [1-(4-chlorobenzyl)-7-hydroxy-1,2,3,4-tetrahydronaphthalen-2-yl]carbamate], for which, on human GlyT1c transporter (setting [1]), the Ki was at most 10 µM. In addition, at human GlyT1c (setting [2]), the IC50 was at most 100 µM.

`CCCS(=O)(=O)N(C)CCOc1ccc2c(c1)C(Cc1ccc(Cl)cc1)C(NC(=O)OCC)CC2` (stereo not shown) [Example 76, (1-(4-Chloro-benzyl)-7-{2-[methyl-(propane-1-sulfonyl)-amino]-ethoxy}-1,2,3,4-tetrahydronaphthalen-2-yl)-carbamic acid ethyl ester]: at human GlyT1c transporter (setting [1]), the Ki was at most 100 µM. On human GlyT1c (setting [2]), the half-inhibitory concentration (IC50) was at most 1000 µM.

As to `CCCS(=O)(=O)NCCOc1ccc2c(c1)C(Cc1ccc(Cl)c(Cl)c1)C(N)CC2` (stereo not shown) [Example 8, Propane-1-sulfonic acid {2-[7-amino-8-(3,4-dichloro-benzyl)-5,6,7,8-tetrahydronaphthalen-2-yloxy]-ethyl}-amide hydrochloride], the Ki on human GlyT1c transporter was at most 0.1 µM. Further, the IC50 at human GlyT1c is at most 0.1 µM.

In the case of `NC1CCc2ccc(OCCNS(=O)(=O)c3cccnc3)cc2C1Cc1ccc(Cl)c(Cl)c1` (stereo not shown) [Example 5, Pyridine-3-sulfonic acid {2-[7-amino-8-(3,4-dichloro-benzyl)-5,6,7,8-tetrahydro-naphthalen-2-yloxy]-ethyl}-amide hydrochloride], the Ki on human GlyT1c transporter (setting [1]) is at most 1 µM. In addition, the IC50 on human GlyT1c (setting [2]) was at most 1 µM.

With `Cc1csc(S(=O)(=O)NCCOc2ccc3c(c2)C(Cc2ccc(Cl)c(Cl)c2)C(N)CC3)c1` (stereo not shown) [Example 24, 4-Methyl-thiophene-2-sulfonic acid {2-[7-amino-8-(3,4-dichloro-benzyl)-5,6,7,8-tetrahydronaphthalen-2-yloxy]-ethyl}-amide hydrochloride], the Ki on human GlyT1c transporter is at most 0.1 µM. Moreover, on human GlyT1c, the IC50 is at most 10 µM.

For the origin of these results see patent US9067871B2, “Aminotetraline derivatives, pharmaceutical compositions containing them, and their use in therapy” (ABBVIE DEUTSCHLAND GMBH & CO KG, priority 2009, dated 2015).
